According to BindingDB's records for doi:10.1016/S0960-894X(00)80246-2 (1991):

Test: Binding potency against SP receptor in bovine caudate using [3H]- as radioligand

Row | Structure (SMILES) | IC50 [nM]
1 | c1ccc(CN[C@H]2C3CCN(CC3)[C@H]2C(c2ccccc2)c2ccccc2)cc1 | 110
2 | Clc1ccccc1CN[C@H]1C2CCN(CC2)[C@H]1C(c1ccccc1)c1ccccc1 | 56
